Source: PubChem BioAssay (NCI)
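In this assay, cells in 96-well plates receive the compound at five concentrations for 48 hours. Endpoints are linearly interpolated between the surrounding concentrations. At the TGI there is no net growth.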

How the values were obtained:
Assay in all cases: NCI-60 cell line screen, 48 h
EKVX NSCLC = test system: EKVX NSCLC
NCI/ADR-RES ovarian = test system: NCI/ADR-RES ovarian
HCC-2998 colon = test system: HCC-2998 colon
HL-60(TB) leukemia = test system: HL-60(TB) leukemia
UO-31 renal = test system: UO-31 renal
TK-10 renal = test system: TK-10 renal
MDA-MB-435 = test system: MDA-MB-435
SN12C renal = test system: SN12C renal
IGROV1 ovarian = test system: IGROV1 ovarian
HCT-15 colon = test system: HCT-15 colon
OVCAR-5 ovarian = test system: OVCAR-5 ovarian

Compound	TGI (EKVX NSCLC)	TGI (NCI/ADR-RES ovarian)	TGI (HCC-2998 colon)	TGI (HL-60(TB) leukemia)	TGI (UO-31 renal)	TGI (TK-10 renal)	TGI (MDA-MB-435)	TGI (SN12C renal)	TGI (IGROV1 ovarian)	TGI (HCT-15 colon)	TGI (OVCAR-5 ovarian)
COC(=O)CCCC(=O)C(=Nc1c(Cl)cccc1Cl)NNc1ccc(Cl)cc1	> 100 µM	> 100 µM	> 100 µM	> 100 µM	> 100 µM	> 100 µM	> 100 µM	> 100 µM	> 100 µM	> 100 µM	> 100 µM
CN1C(=O)CN(NC(=O)C2=C(O)c3ccc(Br)cc3S(=O)(=O)N2)C1=S	> 100 µM	> 100 µM	> 100 µM	> 100 µM	> 100 µM	> 100 µM	> 100 µM	> 100 µM	> 100 µM	> 100 µM	> 100 µM
COc1ccc2c(c1)C(=O)c1ccccc1C2	> 100 µM	> 100 µM	> 100 µM	> 100 µM	> 100 µM	> 100 µM	> 100 µM	> 100 µM	> 100 µM	> 100 µM	> 100 µM
CC(=O)OCC1OC(n2c(=S)[nH]c(-c3ccccc3)c(C#N)c2=O)C(OC(C)=O)C(OC(C)=O)C1OC(C)=O (stereo unspecified)	> 100 µM	> 100 µM	> 100 µM	> 100 µM	> 100 µM	> 100 µM	> 100 µM	> 100 µM	> 100 µM	> 100 µM	> 100 µM
O=[N+]([O-])C(=C(Sc1ccccc1)Sc1ccccc1)C(Cl)=C(Cl)Cl	5.15 µM	1.9 µM	4.4 µM	0.813 µM	0.402 µM	0.326 µM	1.3 µM	1.35 µM	2.95 µM	1.02 µM	1.48 µM
N#CC(C#N)=C1CCCS(=O)(=O)c2ccccc21	> 100 µM	> 100 µM	> 100 µM	> 100 µM	> 100 µM	> 100 µM	> 100 µM	> 100 µM	> 100 µM	> 100 µM	> 100 µM
Cc1ccc(C2=Nc3c(c(C)nn3-c3ccccc3)N=C(C(=O)O)C2)cc1	> 10 µM	> 10 µM	> 10 µM	> 10 µM	> 10 µM	> 10 µM	> 10 µM	> 10 µM	> 10 µM	> 10 µM	> 10 µM
O=c1c2cc(I)ccc2[nH]c(=S)n1Cc1ccccc1	35.4 µM	> 100 µM	> 100 µM	28.5 µM	1.83 µM	42 µM	> 100 µM	> 100 µM	30.3 µM	> 100 µM	> 100 µM
O=C1/C(=C/c2ccc([N+](=O)[O-])cc2)CNC/C1=C\c1ccc([N+](=O)[O-])cc1	33.9 µM	26.3 µM	23.4 µM	10 µM	19.6 µM	> 95.8 µM	23.9 µM	15.5 µM	4.78 µM	3.06 µM	> 69.6 µM
Cc1cc(O)cc(O)c1N=Nc1ccc([N+](=O)[O-])cc1	90.8 µM	52.9 µM	49 µM	> 100 µM	83.8 µM	> 100 µM	42.4 µM	54 µM	66.3 µM	28.9 µM	85.1 µM
Cc1cccc(C[C@@]2(SCc3ccccc3)C(C)(C)[C@@H]3CC[C@@]2(C)C3)n1	40.2 µM	30.2 µM	28.8 µM	29.7 µM	37.2 µM	34.5 µM	78.3 µM	31.5 µM	28.7 µM	26.8 µM	34.9 µM
CC1=C2c3ccccc3N(C(=O)/C=C/C(=O)O)[C@H]2[C@H]2C(=O)OC(=O)[C@H]2C1	> 10 µM	> 10 µM	> 10 µM	> 10 µM	> 10 µM	> 10 µM	> 10 µM	> 10 µM	> 10 µM	> 10 µM	> 10 µM
Cc1ccc(C(=O)Nc2ccc(CP(=O)(O)O)cc2)cc1NC(=O)c1cccc(NC(=O)Nc2cccc(C(=O)Nc3cc(C(=O)Nc4ccc(CP(=O)(O)O)cc4)ccc3C)c2)c1	> 100 µM	> 100 µM	> 100 µM	> 100 µM	> 100 µM	> 100 µM	> 100 µM	> 100 µM	> 100 µM	> 100 µM	> 100 µM
O=C1C(Br)=Cc2c(Cl)sc(Cl)c21	22.2 µM	> 100 µM	7.71 µM	6.3 µM	9.14 µM	5.23 µM	5.43 µM	18.4 µM	7.67 µM	18.6 µM	36 µM
Cc1oc2nc(N(C)C)n3nnnc3c2c1C	> 100 µM	> 100 µM	> 100 µM	63.6 µM	> 100 µM	> 100 µM	> 100 µM	> 100 µM	> 100 µM	> 100 µM	> 100 µM
COC(c1ccc(C(C)(C)C)cc1)(c1ccc(C(C)(C)C)cc1)c1cc(C(O)(c2cc(C(OC)(c3ccc(C(C)(C)C)cc3)c3ccc(C(C)(C)C)cc3)c(C)cc2C)c2cc(C(OC)(c3ccc(C(C)(C)C)cc3)c3ccc(C(C)(C)C)cc3)c(C)cc2C)c(C)cc1C	> 100 µM	> 100 µM	> 100 µM	> 100 µM	> 100 µM	> 100 µM	> 100 µM		> 100 µM	> 100 µM	> 100 µM
Cc1nc2cc(C(F)(F)F)ccc2[nH]c1=O	> 100 µM	> 100 µM	> 100 µM	> 100 µM	> 100 µM	> 100 µM	> 100 µM	> 100 µM		> 100 µM	> 100 µM
CC(C)c1c(P(=O)(c2ccccc2)c2ccccc2)n(C)c2ccccc12	> 100 µM	> 100 µM	> 100 µM	96.9 µM	> 100 µM	> 100 µM	> 100 µM	> 100 µM		> 100 µM	> 100 µM
CN(O)C(=O)Cc1ccc(OCc2cccc(Cl)c2)cc1	> 100 µM	> 100 µM	> 100 µM	> 100 µM	> 100 µM	> 100 µM	> 100 µM	> 100 µM	> 100 µM	> 100 µM	> 100 µM
